The record followed here is patent US5208223A, “Phosphocholine derivative inhibitors of phospholipase A2” (American Cyanamid Company, priority 1992, dated 1993).

Structures can show the parent of a compound that is named as a salt. Where two headings read alike, the source gives them in different places.

Broadly, the IC50 is the concentration that gives 50% inhibition.

The target in the test is T1, porcine pancreatic PLA2 (Sus scrofa, UniProt P00592).
T1 construct: purchased Sigma
The test can be described thus: PLA2 assay: in vitro porcine pancreatic phospholipase A2, preincubation of drug+enzyme, substrate 2 nM. To be noted: preincubation, subs. con. 2; for IC50: read-out: IC50 (converted). It is filed as biochemical. How it is done: Phospholipase A2 activity was measured by a radiochemical assay in which labeled synthetic phosphatidylcholine substrate is converted by porcine pancreatic PLA2 to free radiolabeled arachidonate and lyso PC. Radiolabeled arachidonate is extracted from the reaction mixture and separated from unreacted substrate by column chromatography or TLC. Radioactivity (cpm) in samples is quantitated by liquid scintillation counting. Specific details are as follows:
Labeled substrate(1-stearyl-2-^3 H-arachidonylphosphatidylcholine; Amersham, sp. act. 84 (uCi/mmole, 0.025 to 0.2 uCi/assay tube and unlabeled substrates (Avanti), in sufficient quantity to give 20,000 cpm to 50,000 cpm and 10 μM to 1,000 μM final concentration/assay tube are dried under a stream of nitrogen. The PLA2 and mPLA2 assays utilized a […] substrate concentration. The mHPLA2 and HPLA2 assays (vida infra) utilized a 10 μM substrate concentration and the SmPLA2 assay utilized a substrate concentration ranging from 100 to 1000 μm. The substrate is then redissolved in 0.1M tris-HCl buffer, pH 9.0 containing 10 mM CaCl2 and 10 mM Na taurocholate detergent. The mixture is sonicated in a Kontes Sonifier to yield a homogeneous dispersion. The "mixed" micellar substrate is clear. An aliquot is reserved for a cpm count (total substrate). The total reaction volume is 500 μL; siliconized glassware or plasticware is used throughout. Enzyme (Sigma, sp. act.>690 U/mg protein and preferably 900 U/mg protein) is diluted 1:750 or 1:1000 in 0.1M tris-HCl buffer, pH 9.0 (without Ca^++ and detergent). Enzyme dilution depends on substrate concentration and required enzyme concentration.
The substrate in buffer is kept on ice until the reaction is started. The reaction is started by adding 10 μL of diluted enzyme solution to 490 μL of micellar substrate solution. Samples are incubated in a 37° C. water bath for 15 minutes with gentle mixing. The reaction is terminated by the addition of 100 μL of 1M fresh trichloroacetic acid (TCA) solution and chilling the tubes on ice for 30 minutes.
Samples (600 μL) are extracted with 3 ml CHCl3 /MeOH (2:1) for thin layer chromatography or in hexane/ether (9:1) for column chromatography. The phases are separated by gentle centrifugation at 700 rpm×5'. The organic phase is recovered.
Labeled arachidonate extracted with CHCl3 /MeOH is separated on silica gel G TLC plates (Analtech). Twenty μL of a 2 mg/ml internal standard solution of arachidonic acid (Sigma) is combined with 2-3 ml of the organic phase. The entire mixture is dried under nitrogen and redissolved in 50 μL of CHCl3 /MeOH (2:1). A 20 μL sample is counted in 10 ml of Beckman Redi-solv HP and spotted on silica gel G plates. The solvent system used to develop the plate is CHCl3 /MeOH/13.5N NH3 /H2 O (70:30:4:1). Plates are developed in a glass chamber for 1-11/2 hours, air dried, and the spots visualized in an iodine vapor chamber. Standards of phosphatidylcholine, lyso PC, and arachidonic acid (Sigma) are made as 2 mg/ml stocks in CHCl3 /MeOH (2:1) and spotted on plates. Spots corresponding to arachidonate and phospholipid are scraped and counted in 10 ml Beckman Redi-Solv HP scintillation fluid.
Samples are extracted with hexane/ether and the upper organic phase recovered. An aliquot is applied to a Silicar CC4 (Malincrodt) column. Columns are prepared using 1 ml of a 1:1 slurry of silicar CC4 in hexane/ether in a Pasteur pipet (approx. 2 cm height). Columns are rinsed with 500 μL of hexane/ether before adding the sample (300-600 μL) to the column. Columns are eluted with a total of 6 ml of hexane/ether. The 6 ml sample is counted in 10 ml of Beckman Redi-Solv HP scintillation fluid.
or the phospholipase A2 assay, compounds are prepared as 1 mg/ml stock solutions in MeOH and diluted appropriately in PBS.

[1] abbreviates: dose 10 μ/ml, read-out: % Inh. Avg.

T1 sequence (P00592 23-146): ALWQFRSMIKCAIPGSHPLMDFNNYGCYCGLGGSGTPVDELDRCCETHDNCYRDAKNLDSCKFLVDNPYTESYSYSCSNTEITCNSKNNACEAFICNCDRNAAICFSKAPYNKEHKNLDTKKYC

Regarding `C=C(CCCCCCCCCCCCCCCC)CC(COCCCCCCCCCCCCCCCC)COP(=O)([O-])OCC[N+](C)(C)C` (stereo not shown) [4-Hydroxy-N,N,N-trimethyl-7-(2-methyleneoctadecyl)-3,5,9-trioxa-4-phosphaoentacosan-1-aminium, hydroxide, inner salt, 4-oxide], the half-inhibitory concentration (IC50) was 5.2 µM. Moreover, the inhibition at 10 µg/mL (dose 10 μ/ml, read-out: % Inh.) turned out to be 59%. Moreover, the inhibition at 10 µg/mL under setting [1] came out at 62%. Moreover, where the note is “dose 20 μ/ml, read-out: % Inh.”, the inhibition at 20 µg/mL is 52%.
Regarding `CCCCCCCCCCCCCCCCOCC(COP(=O)([O-])OCC[N+](C)(C)C)OP(=O)(OC)OCCCCCCCCCCCCCCCC` (stereo not shown) [3,5,8,10-Tetraoxa-4,9-diphosphahexacosan-1-aminium, 7-[(hexa] [3,5,8,10-Tetraoxa-4,9-diphosphahexacosan-1-aminium, 7-[(hexadecyloxy)methyl]-4-hydroxy-9-methoxy-N,N,N-trimethyl-, hydroxide, inner salt, 4,9-dioxide], the “% Inh. Avg.” value (dose 10 μ/ml) is reported as 30%, the “% Inh. Avg.” value (dose 25 μ/ml) is recorded as 75% and the “% Inh. Avg.” value (dose 50 μ/ml) was determined as 77%.
For the molecule `CCCCCCCCCCCCCCCCOCC(COP(=O)([O-])OCC[N+](C)(C)C)CC(O)CCCCCCCCCCCCCCCC` (single isomer, unassigned) [4-Hydroxy-7-(2-hydroxyoctadecyl)-N,N,N-trimethyl-3,5,9-triox] [4-Hydroxy-7-(2-hydroxyoctadecyl)-N,N,N-trimethyl-3,5,9-trioxa-4-phosphapentacosan-1-aminium, hydroxide, inner salt, 4-oxide isomer], the “% Inh.” value (dose 10 μ/ml) came to 80%.
On to `CCCCCCCCCCCCCCCCOC[C@H](COP(=O)([O-])OCC[N+](C)(C)C)OP(=O)(OC)OCCCCCCCCCCCCCCCC` (single isomer, unassigned) [3,5,8,10-Tetraoxa-4,9-diphosphahexacosan-1-aminium, 7-[(hexa], for which the “% Inh. Avg.” value (dose 20 μ/ml) was determined as 28%.
`CCCCCCCCCCCCCCCCOCC(COP(=O)([O-])OCC[N+](C)(C)C)CC(=O)CCCCCCCCCCCCCCCC` (stereo not shown) [4-Hydroxy-N,N,N-trimethyl-7-(2-oxooctadecyl)-3,5,9-trioxa-4-phosphapentacosan-1-aminium, hydroxide inner salt, 4 oxide]: the 50% inhibitory concentration (IC50) was 7.92 µM. The inhibition at 10 µg/mL (dose 10 μ/ml, read-out: % Inh.) is 59%. Besides, the inhibition at 10 µg/mL under setting [1] is 60%. Also, for the setting “dose 20 μ/ml, read-out: % Inh.”, the inhibition at 20 µg/mL came to 62%.
The matching figures for `CCCCCCCCCCCCCCCCOCC(CC=O)COP(=O)([O-])OCC[N+](C)(C)C` (stereo not shown) [4-Hydroxy-N,N,N-trimethyl-7-(2-oxoethyl)-3,5,9-trioxa-4-phosphapentacosan-1-aminium, hydroxide, inner salt, 4-oxide]: 26 µM, 47%, 43% and 62%.
For the molecule `CCCCCCCCCCCCCCCCCCOP(=O)(O)OCCOP(=O)([O-])OCC[N+](C)(C)C` [4,9-Dihydroxy-N,N,N-trimethyl-3,5,8,10-tetraoxa-4,9-diphosphaoctacosan-1-aminium, hydroxide, 4-(inner salt), 4,9-dioxide], the inhibition at 10 µg/mL under setting [1] was determined as 40%.
Take `CCCCCCCCCCCCCCCCOCC(COP(=O)([O-])OCC[N+](C)(C)C)CC(O)CCCCCCCCCCCCCCCC` (single isomer, unassigned) [4-Hydroxy-7-(2-hydroxyoctadecyl)-N,N,N-trimethyl-3,5,9-trioxa-4-phosphapentacosan-1-aminium, hydroxide, inner salt, 4-oxide isomer]: the half-inhibitory concentration (IC50) was 2.32 µM.
For `CCCCCCCCCCCCCCCCOCC(COP(=O)([O-])OCC[N+](C)(C)C)CC1(CCCCCCCCCCCCCCCC)CO1` (stereo not shown) [7-[(2-Hexadecyloxiranyl)methyl]-4-hydroxy-N,N,N-trimethyl-3,5,9-trioxa-4-phosphapentacosan-1-aminium, hydroxide, inner salt, 4-oxide], the IC50 is 2.41 µM. In addition, the inhibition at 10 µg/mL (dose 10 μ/ml, read-out: % Inh.) is 78%. Also, under “dose 20 μ/ml, read-out: % Inh.”, the inhibition at 20 µg/mL is 75%.
